# Measurements reported in US12655162B2, “Highly efficient myeloperoxidase activatable imaging agents” (priority 2019, dated 2026).
# How the values were obtained:
# [1] = transmetallation with Zn^2+, cited from earlier work
# [2] = test system: MPO; experiment: MR imaging of complete Freund's adjuvant (CFA) subcutaneous inflammation; assay type: in vivo, mouse; conditions: wild-type mice
# Experimental: The efficacy of mcMPO-Gd was validated in a well-established mouse model of subcutaneous inflammation induced by complete Freund's adjuvant (CFA). Six to ten weeks old female C57BL/6J mice (Jackson Laboratories, Bar Harbor, ME) and MPO-deficient mice were used for this experiment. The mice were injected subcutaneously with a 1:1 (v:v) emulsion of CFA:PBS (40 μL of total volume) on one forearm under isoflurane anesthesia. PBS (40 μL) was injected on the other side as control. After 24 h, gadolinium agents (mcMPO-Gd in PBS containing 10% DMSO and 20% N,N-dimethylacetamide, or MPO-Gd in PBS containing 5% DMSO, or Dotarem in PBS) were administered through tail vein injection and the mice imaged at 0 min, 15 min, 30 min, 45 min, and 60 min using serial T1-weighted imaging (TR:900 ms, TE: 13.59 ms, 0.156×0.156×0.5 mm Voxels) with chemical fat suppression and respiratory gating on a 4.7 T small animal MR scanner (Bruker, Cambridge, MA) with a 3-cm quadrature volume coil (Rapid MR International, Germany). Regions of interest (ROI) were drawn manually by a person blinded to the identity of the mice or imaging agent used, and the contrast-to-noise ratios (CNRs) were calculated as CNR=(SIlesion−SIskeletal muscle)/SDbackground.
# 24 h after injection of a CFA emulsion into the shoulder of mice, contrast agents (0.3 mol/kg) were injected via the tail vein and the animals imaged.
# [3] = molecular target: bovine serum albumin (BSA) (Bos taurus, UniProt P02769); experiment: Binding to proteins (BSA) after activation by MPO, T1 relaxation; assay type: biochemical; conditions: for T1 (Before activation, ms): 0.5 mM agent, PBS; for T1 (Before activation, ms) / T1 (After activation, ms) / T1 change(%): MPO/GOX, 40° C.; for T1 (After activation, ms) / T1 change(%): 1 h
# Experimental: The capability of mcMPO-Gd and MPO-Gd to bind to bovine serum albumin (BSA) after activation by MPO was evaluated. […] The relaxation rates were measured as described above.
# [4] = molecular target: T1, MPO (Mus musculus, UniProt P11247); experiment: MR imaging of tandem stenosis (TS) model of atherosclerotic plaque instability, intervention with AZM198; assay type: in vivo; conditions: TS Apoe^−/− mice, 7 weeks after TS surgery, 0.3 mmol/kg i.v.
# T1 construct: from tissue; host or cells: carotid / brachiocephalic plaque of living male Apoe-/- mice
# T1 sequence (P11247 139-718): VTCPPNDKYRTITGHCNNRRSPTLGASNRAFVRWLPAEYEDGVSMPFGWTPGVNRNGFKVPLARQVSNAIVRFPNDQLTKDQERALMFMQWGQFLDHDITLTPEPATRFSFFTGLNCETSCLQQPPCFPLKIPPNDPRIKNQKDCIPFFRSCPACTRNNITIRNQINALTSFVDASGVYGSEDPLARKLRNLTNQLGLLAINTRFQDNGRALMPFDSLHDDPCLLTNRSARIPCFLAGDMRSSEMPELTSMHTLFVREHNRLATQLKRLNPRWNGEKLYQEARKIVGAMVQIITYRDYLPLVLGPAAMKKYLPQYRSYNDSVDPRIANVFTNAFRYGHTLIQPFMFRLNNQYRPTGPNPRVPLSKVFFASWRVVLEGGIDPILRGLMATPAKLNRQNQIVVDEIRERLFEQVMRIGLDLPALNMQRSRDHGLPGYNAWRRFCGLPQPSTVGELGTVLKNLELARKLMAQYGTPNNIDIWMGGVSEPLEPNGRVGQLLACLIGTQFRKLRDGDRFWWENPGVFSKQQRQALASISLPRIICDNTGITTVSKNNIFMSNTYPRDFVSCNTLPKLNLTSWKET
# Source text: Six weeks after commencement of WD, tandem stenosis (TS) was introduced into the mice as previously described (see e.g., Rashid et al, Eur. Heart J., 2018, 39:3301-3310). Male Apoe^-/- mice were anesthetized with 4% isoflurane. The right common carotid artery was dissected from circumferential connective tissues. Two stenoses were placed by tying a 6-0 blue-braided polyester fiber suture (TICRON 0.7 Metric) around the exposed artery, with the distal stenosis 1 mm from the carotid artery bifurcation and the proximal stenosis 3 mm from the distal stenosis. Blood flow was measured before and after the addition of each ligature using a perivascular flow module (Transonic, TS420) and a 0.7 mm perivascular flow probe (Transonic MA0.7PSB). Flow for each ligature in the TS was defined as 70% of baseline flow after addition of the distal ligature and 20% of baseline flow after addition of the proximal ligature. […] The contrast-to-noise ratio (CNR) was calculated as follows: CNR=([…] muscle)/SDbackground. The mean CNRs of three consecutive slices in plaque with unstable phenotype and corresponding segments of the left carotid artery (plaque-free), in addition to 1-2 consecutive slices in the brachiocephalic trunk (stable plaque), were calculated. Segmental enhancement attributable to MPO was assessed by calculating the ΔCNR=CNRpost-contrast-CNRpre-contrast. […]
# [5] = 0.47 T, PBS, 40° C.; determined previously (Querol et al); cited from earlier work
# [6] = Kinetic stability: transmetallation with Zn^2+ (relaxation rate R1 over 95 h); assay type: physicochemical; conditions: 1 mM agent, ZnCl2 2.5 mM, PBS, 40° C., 0.47 T
# Experimental: Am. Chem. Soc., 2010, 132:168-177; and Laurent et al, Invest. Radiol., 2001, 36:115-122). mcMPO-Gd or MPO-Gd (1 mM) was incubated with ZnCl2 (2.5 mM) in PBS at 40° C., and the relaxation rates (R1) were measured for 95 h using an inversion-recovery pulse sequence on the Bruker Minispec (Bruker Analytics, North Billerica, MA) at 0.47 T (20 MHz) at 40° C. The stability of mcMPO-Gd was evaluated by kinetic index (R1(t)/R1(t=0)=0.8) and thermodynamic index (R1(72 h)/R1(t=0)) and compared with MPO-Gd (see e.g., Rodriguez et al, J. Am. Chem. […] Org. Chem., 2006, 71:3332-3334). […] T1 relaxation time was measured as previously described at different time points (see e.g., Rodriguez et al, J. Am. Chem. Soc., 2010, 132:168-177). […] Radiol., 2001, 36:115-122) indicating high stability of mcMPO-Gd, consistent with a previous report on the kinetic stability of the macrocyclic GBCAs (see e.g., Laurent et al, Contrast Media Mol. Imaging 2006, 1:128-137).
# Chain of bovine serum albumin (BSA) (P02769 25-607): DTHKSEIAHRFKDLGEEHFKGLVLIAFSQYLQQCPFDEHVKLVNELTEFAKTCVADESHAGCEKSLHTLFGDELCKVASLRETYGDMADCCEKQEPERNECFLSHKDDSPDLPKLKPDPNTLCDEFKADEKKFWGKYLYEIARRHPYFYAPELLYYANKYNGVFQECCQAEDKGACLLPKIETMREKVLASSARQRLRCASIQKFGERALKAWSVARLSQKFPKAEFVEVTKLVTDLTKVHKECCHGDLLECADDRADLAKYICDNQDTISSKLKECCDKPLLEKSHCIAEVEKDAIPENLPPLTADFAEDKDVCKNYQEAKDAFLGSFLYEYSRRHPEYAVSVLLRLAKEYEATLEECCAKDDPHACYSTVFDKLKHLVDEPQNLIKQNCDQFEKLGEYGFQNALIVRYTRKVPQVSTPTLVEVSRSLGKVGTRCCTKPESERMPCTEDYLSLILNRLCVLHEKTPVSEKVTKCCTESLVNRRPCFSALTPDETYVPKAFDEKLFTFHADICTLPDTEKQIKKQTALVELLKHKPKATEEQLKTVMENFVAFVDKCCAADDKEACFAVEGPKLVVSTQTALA
smiles,measurement,setting,value
"CNC(=O)CN(CCN(CCN(CC(=O)[O-])CC(=O)NC)CC(=O)[O-])CC(=O)[O-].[Gd+3] [BMA—DTPA—Gd, BMA-Gd-DTPA]",R1(t=72 h)/R1(t=0) (long-term index),[1]; literature value (Laurent et al),0.09
same,t (min) for R1(t)/R1(t=0) = 0.8,[1]; literature value,50 to 60 min
"CNC[C@H](O)[C@@H](O)[C@H](O)[C@H](O)CO.O=C([O-])CN1CCN(CC(=O)[O-])CCN(CC(=O)O)CCN(CC(=O)[O-])CC1.[Gd+3] [Dotarem, gadoterate meglumine]",contrast-to-noise ratio (CNR) over time,"[2]; i.v., over 60 min",decreased rapidly over time
"O=C([O-])CN(CCN(CC(=O)[O-])CC(=O)NCCc1c[nH]c2ccc(O)cc12)CCN(CC(=O)[O-])CC(=O)NCCc1c[nH]c2ccc(O)cc12.[Gd+3] [MPO-Gd, bis-5-HT-Gd-DTPA]",improvement in T1 shortening in the presence of BSA,"[3]; BSA vs no BSA, after MPO activation",22%
same,"T1 (Before activation, ms)",[3]; BSA,381 ms
same,"T1 (After activation, ms)",[3]; BSA,246 ms
same,T1 change(%),[3]; BSA,54%
same,"T1 (Before activation, ms)",[3]; No BSA,375 ms
same,"T1 (After activation, ms)",[3]; No BSA,283 ms
same,T1 change(%),[3]; No BSA,32%
same,ΔCNR in unstable plaque,[4],15.0
same,increase in activation ratio (AR=CNR(post-contrast)/CNR(first post-contrast)),[2]; 60 min,2 fold
same,relaxivity (r1),[5],4.3 mM⁻¹ s⁻¹
same,R1(t=72 h)/R1(t=0) (long-term / thermodynamic index),[6],0.76
same,t (min) for R1(t)/R1(t=0) = 0.8 (kinetic / ratio index),[6],2866 min
